Laboratory results published in patent publication US9670147B2, “Antioxidant inflammation modulators: oleanolic acid derivatives with amino and other modifications at C-17” (REATA PHARMACEUTICALS, INC., priority 2008, dated 2017).

Legend:
[1] = TP levels in mouse brain after feeding in diet, LC/MS; format: in vivo; conditions: CD-1 mice, 200 or 400 mg/kg diet for 3.5 days
Experimental: FIG. 48. […] CD-1 mice were fed either 200 or 400 mg/kg diet of either TP-319 or TP-500 for 3.5 days, and TP levels in the brains of the mice were analyzed by LC/MS. The structures of TP-319 and TP-500 are shown herein.

γ-GCS = assay: Nrf2 target gene induction in MDA-MB-435 cells, qPCR: γ-GCS; format: cell-based, human
Experimental: (§1) FIGS. 44, 46 and 47—Induction of HO-1, TrxR1 and γ-GCS. FIGS. 44A-C, 46A-C, 47A-C: MDA-MB-435 human melanoma cells were treated with vehicle (DMSO) or the indicated compounds (400 nM) for 16 hours. HO-1, thioredoxin reductase-1 (TrxR1), and γ-glutamylcysteine synthetase (γ-GCS) mRNA levels were quantified using qPCR and were normalized relative to a DMSO-treated sample run in parallel. Values are averages of duplicate wells. FIGS. 44D, 46D, 47D: MDA-MB-435 cells were treated with vehicle (DMSO) or the indicated compounds at 400 nM for 16 hours. HO-1, TrxR1 and actin protein levels were assayed by immunoblotting.
(§2) FIG. 45. Induction of HO-1, TrxR1 and γ-GCS. FIGS. 45 A-C: MDA-MB-435 cells were treated with vehicle (DMSO) or the indicated compounds at 160 nM for 16 hours. HO-1, TrxR1, and γ-GCS mRNA levels were quantified by qPCR and were normalized relative to a DMSO-treated sample run in parallel. Values are averages of duplicate wells. FIGS. 44D, 46D, 47D: MDA-MB-435 cells were treated with vehicle (DMSO) or the indicated compounds at 160 nM for 16 hours. HO-1, TrxR1 and actin protein levels were assayed by immunoblotting.
(§3) MDA-MB-435 human melanoma cells were treated with vehicle (DMSO) or the indicated compounds and concentrations for 16 hours. HO-1, thioredoxin reductase-1 (TrxR1), γ-glutamylcysteine synthetase (γ-GCS), and ferritin heavy chain mRNA levels were quantified using qPCR and were normalized relative to a DMSO-treated sample run in parallel. Values are averages of duplicate wells. Primer sequences are as follows.

RAW264.7 macrophages = assay: Cell viability, WST-1 reagent; format: cell-based, mouse; conditions: 2 h pre-treatment, then 20 ng/ml IFNγ for 24 hours
Method in brief: (§4)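 Mouse RAW264.7 macrophages pre-treated 2 h with compound (nM concentrations) or DMSO, then stimulated with 20 ng/ml recombinant mouse IFNγ for 24 h. Nitrite in medium measured by Griess reagent; viability by WST-1.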

NQO1 = assay: Nrf2 target gene induction in MDA-MB-435 cells: NQO1; format: cell-based, human; conditions: 250 nM
HO-1 = assay: Nrf2 target gene induction in MDA-MB-435 cells, qPCR: HO-1; format: cell-based, human
Experimental: FIG. 43. Induction of HO-1. FIGS. 43A and 43B: MDA-MB-435 human melanoma cells were treated with vehicle (DMSO) or the indicated compounds and concentrations for 16 hours. HO-1 mRNA levels were quantified using qPCR and were normalized relative to a DMSO-treated sample run in parallel. Values are averages of duplicate wells. FIG. 43C: MDA-MB-435 cells were treated with vehicle (DMSO) or the indicated compounds at 400 nM for 16 hours. HO-1, TrxR1 and actin protein levels were assayed by immunoblotting. Actin served as a loading control.
as §1, §2, §3

[2] = tested on: IFNγ-induced NO production in RAW264.7 macrophages; assay: Suppression of IFNγ-induced NO production (Griess reagent); format: cell-based, mouse; conditions: 2 h pre-treatment, then 20 ng/ml IFNγ for 24 hours
Method in brief: as §4

TrxR1 = assay: Nrf2 target gene induction in MDA-MB-435 cells, qPCR: TrxR1; format: cell-based, human; conditions: 400 nM, 16 hours
Experimental: as §1, §2, §3

IC50 [2] | IC50 ([2]; Mus musculus) | Molecule | TP levels in the brains of the mice [1] | γ-GCS induction (γ-GCS; 250 nM) | IC50 (RAW264.7 macrophages) | NQO1 induction (NQO1) | HO-1 induction (HO-1; 250 nM) | γ-GCS induction (γ-GCS; 400 nM, 16 hours) | IC50 (RAW264.7 macrophages; Mus musculus) | HO-1 induction (HO-1; 400 nM, 16 hours) | TrxR1 induction (TrxR1)
 |  | CC1(C)CC[C@]2(C(=O)NCC(F)(F)F)CC[C@]3(C)[C@H](C(=O)C=C4[C@@]5(C)C=C(C#N)C(=O)C(C)(C)[C@@H]5CC[C@]43C)[C@@H]2C1 [CDDO-TFEA] | Higher Levels in Mouse Brain than CDDO-EA |  |  |  |  |  |  |  | 
~25 nM |  | N-((4aS,6aR,6bR,8aR,12aR,12bR,14aR,14bS)-11-cyano-2,2,6a,6b,9,9,12a-heptamethyl-10,14-dioxo-1,2,3,4,4a,5,6,6a,6b,7,8,8a,9,10,12a,12b,13,14,14a,14b-icosahydropicen-4a-yl)-2,2,2-trifluoroethanesulfonamide [Compound 63254] |  | 3 fold induction above DMSO control | > 200 nM | 1.7 fold induction above DMSO control | 2 fold induction above DMSO control |  |  |  | 
 | ~15 nM | CC1(C)CC[C@]2(NS(C)(=O)=O)CC[C@]3(C)[C@H](C(=O)C[C@@H]4[C@@]5(C)C=C(C#N)C(=O)C(C)(C)[C@@H]5CC[C@]43C)[C@@H]2C1 [Compound 63215, N-((4aS,6aR,6bR,8aR,12aR,12bR,14aR,14bS)-11-cyano-2,2,6a,6b,9,9,12a-heptamethyl-10,14-dioxo-1,2,3,4,4a,5,6,6a,6b,7,8,8a,9,10,12a,12b,13,14,14a,14b-icosahydropicen-4a-yl)methanesulfonamide] |  | 3.8 fold induction above DMSO control |  | 1.7 fold induction above DMSO control | 1.7 fold induction above DMSO control | 21% of induction observed for RTA 402 | > 200 nM | 1% of induction observed for RTA 402 | 36% of induction observed for RTA 402
 |  | CC1(C)CC[C@]2(O)CC[C@]3(C)[C@H](C(=O)CC4[C@@]5(C)C=C(C#N)C(=O)C(C)(C)[C@@H]5CC[C@]43C)[C@@H]2C1 (stereo partly drawn) [Compound 63208, (4aR,6aR,6bR,8aS,12aS,12bR,14bR)-8a-hydroxy-4,4,6a,6b,11,11,14b-heptamethyl-3,13-dioxo-3,4,4a,5,6,6a,6b,7,8,8a,9,10,11,12,12a,12b,13,14,14a,14b-icosahydropicene-2-carbonitrile] |  | 3.2 fold induction above DMSO control |  | 1.7 fold induction above DMSO control | 1.1 fold induction above DMSO control |  |  |  | 
 | ~30 nM | CC1(C)CC[C@]2(N)CC[C@]3(C)[C@H](C(=O)C[C@@H]4[C@@]5(C)C=C(C#N)C(=O)C(C)(C)[C@@H]5CC[C@]43C)[C@@H]2C1 [Compound 63198, (4aR,6aR,6bR,8aS,12aS,12bR,14aR,14bR)-8a-amino-4,4,6a,6b,11,11,14b-heptamethyl-3,13-dioxo-3,4,4a,5,6,6a,6b,7,8,8a,9,10,11,12,12a,12b,13,14,14a,14b-icosahydropicene-2-carbonitrile] |  | 2.8 fold induction above DMSO control |  | 1.8 fold induction above DMSO control | 1.4 fold induction above DMSO control |  | > 200 nM | 2% of induction observed for RTA 402 | 71% of induction observed for RTA 402
